Structures can show the parent of a compound that is named as a salt. Where two headings read alike, the source gives them in different places. Blank lines part the entries; values can stand above or below the molecule they belong to.
Legend:
[1] = Solubility of the isolated product
[2] = system: blood platelet aggregation; test: Anti-aggregation action in rats (graded / in words); format: in vivo; design: key to Anti-aggregation action: -: zero activity; +: significant activity; ++: intense activity; +++: very intense activity
Source text: (b) by ADP: the inhibition of aggregation (that is to say the % transmission).

[3] = Reduction of lipids and cholesterol in rats treated orally; format: in vivo; conditions: for inhibition in vivo at 50 mg/kg: oral 50 mg/kg; for inhibition in vivo at 20 mg/kg: po, 120 h, 5 days
Clinical tests in man = format: in vivo; conditions: for treatment of hyperlipidaemia: man
Method: The clinical tests have made it possible to confirm the pharmacological tests. Thus, in man, CRL 40,293 (Example 23) in the form of gelatine-coated pills containing 400 mg of active ingredient administered at the rate of 2 such pills twice daily has given good results in the treatment of circulatory complaints and especially of lipid disturbances.
CRL 40,386 (Example 8) has been used in man for the treatment of hyperlipidaemia in the form of gelatine-coated pills each containing 300 mg of active ingredient at the rate of 2 to 6 such pills per day.

[4] = system: platelets (aggregation induced by collagen); test: Anti-aggregation action, platelet aggregation induced by collagen; format: in vivo, male Wistar rats; conditions: 4 days
Method: (a) by collagen: the inhibition of aggregation (which corresponds to the % transmission), the latency period and the speed; and
In Table IV which follows have been shown the results relating to the anti-aggregation action of some products on the blood of male Wistar rats, the aggregating agents used being collagen/acetic acid diluted 1/10, and ADP at 1 μM.

[5] = Hypo-lipidaemic and hypo-cholesterolaemic action in rats on hyper-lipid diet; format: in vivo, Wistar rats; conditions: hyper-lipid diet; for inhibition at 10 mg/kg / inhibition at 25 mg/kg / inhibition at 100 mg/kg: Rattus norvegicus, normal diet = 100%, hyper-lipid diet = 0%
Source text: A. a batch of rats receiving a normal diet (percentage inhibition=100%);
B. a batch of rats receiving a hyper-lipid diet (percentage inhibition=0%);
C. a batch of rats receiving the hyper-lipid diet B with a daily dose, of 0.1 g/kg, of a reference product having a lipidaemia-normalising action, namely Lipavlon [ethyl 2-(p-chlorophenoxy)-2-methyl-propionate];
D. a batch of rats receiving the hyper-lipid diet B with a daily dose, of 0.1 g/kg, of another product having a lipidaemia-normalising action, namely LL 1558 [1,10-bis-(2-hydroxyethyl-thio)-decane]; and
E. a batch of rats receiving the hyper-lipid diet B with a daily dose of 10 mg/kg and 25 mg/kg, where necessary, higher doses.
In Table III which follows have been shown the results relating to CRL 40,201 (the product of Example 17) and CRL 40,202 (the product of Example 18) in respect of the hypo-lipidaemic action and hypo-cholesterolaemic action.

[6] = Hypo-lipidaemic and hypo-cholesterolaemic action of other products (Table V); format: in vivo, rats; conditions: Rattus norvegicus, 96 h; for change in vivo at 10 mg/kg: oral 10 mg/kg for 4 days; for change in vivo at 100 mg/kg: oral 100 mg/kg for 4 days
Source text: The results of the anti-aggregation test and of the hypo-[…] action and hypo-cholesterolaemic action tests of other products of the invention have been […] Table V which follows, the code used being the following (for each dose shown): […]

[7] = capsules or gelatine-coated pills of 500 mg, 2 to 4 per day
[8] = oral daily dose 0.010 g/kg, read-out: Total cholesterol % inhibition
[9] = oral daily dose 0.010 g/kg, read-out: Total lipids % inhibition
[10] = oral daily dose 0.025 g/kg, read-out: Total cholesterol % inhibition
[11] = oral daily dose 0.025 g/kg, read-out: Total lipids % inhibition
[12] = oral 200 mg/kg, collagen/acetic acid diluted 1/10
[13] = read-out: Total lipids (change)
[14] = oral daily dose 0.1 g/kg, read-out: Total cholesterol % inhibition
[15] = oral daily dose 0.1 g/kg, read-out: Total lipids % inhibition

- solubility in water (in words) [1]: water-insoluble
SMILES: CC(CO)Sc1ccc(Oc2ccc(Cl)cc2)cc1 (racemic) [CRL 40,282, (±)-2-[4-(4-Chlorophenoxy)-phenylthio]-1-propanol]
- Anti-aggregation action ([2]; oral 100 mg/kg for 4 days): +

SMILES: CC(CNCCO)Sc1ccc(Oc2ccc(Cl)cc2)cc1 (racemic) [CRL 40,283, (±)-N-Hydroxyethyl-2-[4-(4-chlorophenoxy)-phenylthio]-1-propylamine]
- solubility in aqueous hydrochloric acid solution (in words) ([1]; aqueous hydrochloric acid, pH 3 to pH 7): soluble in an aqueous hydrochloric acid solution at between pH 3 and pH 7
- Anti-aggregation action ([2]; oral 200 mg/kg for 4 days): +

SMILES: CC(CO)Oc1ccc(Oc2ccc(Cl)cc2)cc1 (racemic) [CRL 40,300, (±)-2-[4-(4-Chlorophenoxy)-phenoxy]-1-propanol]
- solubility in water (in words) [1]: insoluble in water
- Anti-aggregation action ([2]; oral 100 mg/kg for 4 days): +

SMILES: CC(COC(=O)C(C)(C)Oc1ccc(Sc2ccc(Cl)cc2)cc1)SCCCCCCCCCCSC(C)COC(=O)C(C)(C)Oc1ccc(Sc2ccc(Cl)cc2)cc1 (racemic) [CRL 40,387, (±)-2,15-Dimethyl-3,14-dithia-1,16-hexadecyl di-{2-[p-(p-chlorophenylthio)-phenoxy]-2-methylpropionate}]
- effect on the blood platelet aggregation ([2]; 10, 20 and 50 mg/kg orally): no effect

SMILES: CC(COC(=O)COc1ccc(Sc2ccc(Cl)cc2)cc1)SCCCCCCCCCCSC(C)COC(=O)COc1ccc(Sc2ccc(Cl)cc2)cc1 (racemic) [CRL 40,389, (±)-2,15-Dimethyl-3,14-dithia-1,16-hexadecyl di-[p-(p-chlorophenylthio)-phenoxy-acetate]]
- inhibition in vivo at 50 mg/kg ([3]; Rattus norvegicus, 96 h, 4 days, read-out: reduction in the cholesterol): 35%
- inhibition in vivo at 50 mg/kg ([3]; Rattus norvegicus, 96 h, 4 days, read-out: reduction in the lipids): 35%
- tolerance in man (Clinical tests in man; [7]): well tolerated
- treatment of hyperlipidaemia (Clinical tests in man; [7]): efficient

SMILES: CC(COC(=O)CSc1ccc(Oc2ccc(Cl)cc2)cc1)SCCCCCCCCCCSC(C)COC(=O)CSc1ccc(Oc2ccc(Cl)cc2)cc1 (racemic) [CRL 40,405, (±)-2,15-Dimethyl-3,14-dithia-1,16-hexadecyl di-[p-(p-chlorophenoxy)-phenylthio-acetate]]
- % transmission (collagen test) ([4]; 100 mg/kg): -10%
- latency time (collagen test) ([4]; 100 mg/kg, unit not given): +10
- speed (collagen test) ([4]; 100 mg/kg, unit not given): -17
- inhibition in vivo at 100 mg/kg ([3]; Rattus norvegicus, 96 h, oral 100 mg/kg, 4 days): 44%
- inhibition in vivo at 20 mg/kg ([3]; Rattus norvegicus, read-out: reduction in the cholesterol): 30%
- inhibition in vivo at 20 mg/kg ([3]; Rattus norvegicus, read-out: reduction in the lipids): 12%
- reduction in the (total) lipids ([3]; oral 100 mg/kg, 4 days): 35%

SMILES: CC(COC(=O)C(C)(C)Sc1ccc(Oc2ccc(Cl)cc2)cc1)SCCCCCCCCCCSC(C)COC(=O)C(C)(C)Sc1ccc(Oc2ccc(Cl)cc2)cc1 (racemic) [CRL 40,414, (±)-2,15-Dimethyl-3,14-dithia-1,16-hexadecyl di-{2-[p-(p-chlorophenoxy)-phenylthio]-2-methylpropionate}]
- reduction in the (total) lipids ([3]; oral 100 mg/kg, 4 days): 12%
- treatment of hyperlipidaemia (Clinical tests in man; gelatine-coated pills of 300 mg, 3 per day): used with success

SMILES: CC(C)(Oc1ccc(Sc2ccc(Cl)cc2)cc1)C(=O)O [CRL 40,201, 4-(4-Chlorophenylthio)-phenoxyisobutyric acid]
- inhibition at 10 mg/kg [5, 8]: 35%
- inhibition at 10 mg/kg [5, 9]: 30%
- inhibition at 25 mg/kg [5, 10]: 48%
- inhibition at 25 mg/kg [5, 11]: 45%
- Total cholesterol ([5]; oral daily dose 0.010 g/kg): 3.28 g/L
- Total lipids ([5]; oral daily dose 0.010 g/kg): 9 g/L
- Total cholesterol ([5]; oral daily dose 0.025 g/kg): 2.8 g/L
- Total lipids ([5]; oral daily dose 0.025 g/kg): 7.7 g/L

SMILES: CC(C)(Oc1ccc([S+]([O-])c2ccc(Cl)cc2)cc1)C(=O)O (stereo not shown) [CRL 40,202, 4-(4-Chlorophenylsulphinyl)-phenoxyisobutyric acid]
- inhibition at 10 mg/kg [5, 8]: 26%
- inhibition at 10 mg/kg [5, 9]: 27%
- inhibition at 25 mg/kg [5, 10]: 59%
- inhibition at 25 mg/kg [5, 11]: 53%
- Total cholesterol ([5]; oral daily dose 0.010 g/kg): 3.64 g/L
- Total lipids ([5]; oral daily dose 0.010 g/kg): 9.28 g/L
- Total cholesterol ([5]; oral daily dose 0.025 g/kg): 2.38 g/L
- Total lipids ([5]; oral daily dose 0.025 g/kg): 7.05 g/L

- solubility in water (in words) [1]: insoluble in water
SMILES: CC(C)(Oc1ccc(Sc2ccc(Cl)cc2)cc1)C(=O)NCCO [CRL 40,251, N-Hydroxyethyl-4-(4-chlorophenylthio)-phenoxy-isobutyramide]
- change in aggregation, collagen, latency period [4, 12]: +23%
- change in aggregation, collagen, speed [4, 12]: -21%

- solubility in water (in words) [1]: insoluble in water
SMILES: CC(C)(Oc1ccc(Sc2ccc(Cl)cc2)cc1)C(=O)OCCSCCCCCCCCCCSCCOC(=O)C(C)(C)Oc1ccc(Sc2ccc(Cl)cc2)cc1 [CRL 40,253, 3,14-Dithia-1,16-hexadecyl di-[4-(4-chlorophenylthio)-phenoxyisobutyrate]]
- change in vivo at 10 mg/kg ([6]; read-out: Cholesterol (change)): -40%
- change in vivo at 10 mg/kg [6, 13]: -40%

- solubility in water (in words) [1]: insoluble in water
SMILES: CC(C)(CO)Oc1ccc(Oc2ccc(Cl)cc2)cc1 [CRL 40,310, 4-(4-Chlorophenoxy)-phenoxy-isobutanol]
- change in vivo at 100 mg/kg ([6]; read-out: Cholesterol (change)): -32%
- change in vivo at 100 mg/kg [6, 13]: -20%

- solubility in water (in words) [1]: insoluble in water
SMILES: CC(C)(COS(C)(=O)=O)Oc1ccc(Oc2ccc(Cl)cc2)cc1 [CRL 40,312, 4-(4-Chlorophenoxy)-phenoxy-isobutyl mesylate]
- Anti-aggregation action ([2]; oral 100 mg/kg for 4 days): +

- solubility in hot water (in words) ([1]; hot water, hydrochloride): soluble in hot water
SMILES: Clc1ccc(Oc2ccc(OCC3=NCCN3)cc2)cc1 [CRL 40,322, 2-[4-(4-Chlorophenoxy)-phenoxy]-methyl-2-imidazoline hydrochloride]
- Anti-aggregation action ([2]; oral 100 mg/kg for 4 days): +

SMILES: CCN(CC)CCOc1ccc(Oc2ccc(Cl)cc2)cc1.Cl [CRL 40,330, N,N-Diethyl-2-[4-(4-chlorophenoxy)-phenoxy]-ethylamine hydrochloride]
- change in vivo at 100 mg/kg ([6]; read-out: Cholesterol (change)): -13%
- change in vivo at 100 mg/kg [6, 13]: -13%
- Anti-aggregation action ([2]; oral 100 mg/kg for 4 days): +

- solubility in water (in words) [1]: insoluble in water
SMILES: CC(C)(O)COc1ccc(Oc2ccc(Cl)cc2)cc1 [CRL 40,332, 1-[4-(4-Chlorophenoxy)-phenoxy]-2-methyl-2-propanol]
- Anti-aggregation action ([2]; oral 100 mg/kg for 4 days): +

SMILES: O=C(O)COc1ccc(Oc2ccc(Cl)cc2)cc1 [CRL 40,333, 4-(4-Chlorophenoxy)-phenoxyacetic acid]
- solubility in water (in words) [1]: insoluble in water
- change in vivo at 100 mg/kg ([6]; read-out: Cholesterol (change)): -20%
- change in vivo at 100 mg/kg [6, 13]: -24%
- Anti-aggregation action ([2]; oral 100 mg/kg for 4 days): ++

- solubility in water (in words) [1]: soluble in water
SMILES: CCN(CC)CCNC(=O)COc1ccc(Oc2ccc(Cl)cc2)cc1.Cl [CRL 40,334, N-(2-Diethylaminoethyl)-4-(4-chlorophenoxy)-phenoxy-acetamide hydrochloride]
- change in vivo at 100 mg/kg ([6]; read-out: Cholesterol (change)): -17%
- change in vivo at 100 mg/kg [6, 13]: -17%
- Anti-aggregation action ([2]; oral 100 mg/kg for 4 days): +++

SMILES: OCCSCCCCCCCCCCSCCO [LL 1558, 1,10-bis-(2-hydroxyethyl-thio)-decane, reference compound]
- inhibition at 100 mg/kg [5, 14]: 63%
- inhibition at 100 mg/kg [5, 15]: 54%
- Total cholesterol ([5]; oral daily dose 0.1 g/kg): 2.22 g/L
- Total lipids ([5]; oral daily dose 0.1 g/kg): 7 g/L

SMILES: CCOC(=O)C(C)(C)Oc1ccc(Cl)cc1 [Lipavlon, ethyl 2-(p-chlorophenoxy)-2-methyl-propionate, reference compound]
- inhibition at 100 mg/kg [5, 14]: 11%
- inhibition at 100 mg/kg [5, 15]: 14%
- Total cholesterol ([5]; oral daily dose 0.1 g/kg): 4.18 g/L
- Total lipids ([5]; oral daily dose 0.1 g/kg): 10.4 g/L
